Results reported in patent US20150232509A1, “SPIRO RING COMPOUNDS AS HEPATITIS C VIRUS (HCV) INHIBITORS” (SUNSHINE LAKE PHARMA CO., LTD., priority 2012, published 2015).

Legend:
HCV GT1a replicon cells = assay: HCV Replicon assay, GT1a replicon cells (Luciferase / NEO qPCR); type: cell-based; conditions: Hepatitis C virus, 72 hours incubation, read-out: EC50 against HCV 1a genotype
Method: (§1) An HCV Replicon assay was utilized in the present invention, and was prepared, developed and validated as described in Science, 1999, 285 (5424), 110-3 and J. Virol., 2003, 77 (5), 3007-19.
(§2) HCV GT1a, GT1b and GT2a replicon cells were used to test the currently described compound series as well as wild-type cells HCV 1b and resistant cells Y93H, L31F, P32L and 1302V. […]
(§3) The GT1a cells and GT1b cells were seeded into 96-well plates (8,000 cells in 125 μL/well) respectively; each compound was diluted to desired concentration using 5-fold serial dilutions protocol, 10 doses in duplicate, and added to wells with POD™ 810 Plate Assembler. The final concentration of DMSO was 0.5%; the plates were incubated in a CO2 incubator for 72 hours; after that, 40 μL of Luciferase assay substrate (Promega Bright-Glo) was added to each well, and detected by a chemiluminescence detection system (Topcount Microplate Scintillation and Luminescence Counter) 5 minutes later; data analysis.
(§4) The GT1a cells and GT1b cells were seeded into 96-well plates (8,000 cells in 125 μL/well) respectively; each compound was diluted to desired concentration using 5-fold serial dilutions protocol, 10 doses in duplicate, and added to wells with POD™ 810 Plate Assembler., the final concentration of DMSO was 0.5%; the cells were incubated in a CO2 incubator for 72 hours; quantitative PCR. • Sample preparation: the supernatant was removed, 100 μL of FCW buffer solution was added to each well, washed carefully and discarded the solution; 50 μL of lysate FCP was added to each well, the cells was lysed as PCR template and PCR template was diluted with DEPC water as sample template. • Quantitative PCR: preparation of reaction mixture according to PCR system; the reaction mixture was dispensed into a 384-well PCR reaction plate (specially for quantitative); and a standard template which was diluted in proportion was distributed into the plate; and the sample template was distributed into the plate; then the 384-well plate was sealed with closure plate membrane; the […] PCR machine was operated by procedures; data analysis. 3. Data Processing: the EC50 Values of Compounds were Analyzed by GraphPad Prism Software.

HCV GT1b replicon cells = assay: HCV Replicon assay, GT1b replicon cells (Luciferase / NEO qPCR); type: cell-based; conditions: Hepatitis C virus, 72 hours incubation, read-out: EC50 against HCV 1b genotype
Method: as §1, §2, §3, §4

Row | Compound | EC50 (HCV GT1a replicon cells) | EC50 (HCV GT1b replicon cells)
1 | COC(=O)N[C@H](C(=O)N1CCC[C@H]1C(=O)Nc1cccc(-c2ccc(-c3ccc(-c4cnc([C@@H]5CCCN5C(=O)[C@@H](NC(=O)OC)C(C)C)[nH]4)cc3)c3c2CCC32CCCC2)c1)C(C)C [Example 34] | 0.837 nM | 0.017 nM
2 | COC(=O)N[C@H](C(=O)N1CCC[C@H]1c1ncc(-c2ccc(-c3ccc(-c4ccc5[nH]c([C@@H]6CCCN6C(=O)[C@@H](NC(=O)OC)C(C)C)nc5c4)c4c3C3(CCCC3)CC4)cc2)[nH]1)C(C)C [Example 3] | 0.097 nM | 0.032 nM
3 | COC(=O)N[C@H](C(=O)N1C[C@@H](F)C[C@H]1c1ncc(-c2ccc(-c3ccc(-c4cnc([C@@H]5C[C@H](F)CN5C(=O)[C@@H](NC(=O)OC)C(C)C)[nH]4)c4c3C3(CCCC3)CC4)cc2)[nH]1)C(C)C [Example 17] | 0.475 nM | 0.072 nM
4 | COC(=O)N[C@H](C(=O)N1C2CC2C[C@H]1c1ncc(-c2ccc(-c3ccc(-c4ccc5nc([C@@H]6CC7CC7N6C(=O)[C@@H](NC(=O)OC)C(C)C)[nH]c5c4)c4c3C3(CCCC3)CC4)cc2)[nH]1)C(C)C (some centres unmarked) [Example 32] | 0.064 nM | 0.077 nM
5 | CNC(=O)N[C@H](C(=O)N1C2CC2C[C@H]1c1nc2ccc(-c3ccc(-c4ccc(-c5cnc([C@@H]6CCCN6C(=O)[C@@H](NC(=O)OC)C(C)C)[nH]5)cc4)c4c3C3(CCCC3)CC4)cc2[nH]1)C(C)C (some centres unmarked) [Example 11] | 0.447 nM | 0.096 nM
6 | COC(=O)N[C@H](C(=O)N1CCC[C@H]1c1nc2cc(-c3ccc(-c4ccc5[nH]c([C@@H]6CCCN6C(=O)[C@@H](NC(=O)OC)C(C)C)nc5c4)c4c3CCC43CCCC3)ccc2[nH]1)C(C)C [Example 1] | 0.102 nM | 0.041 nM
7 | COC(=O)N[C@H](C(=O)N1C[C@@H](C)C[C@H]1c1nc(-c2ccc(-c3ccc(-c4ccc(-c5c[nH]c([C@@H]6C[C@H](C)CN6C(=O)[C@@H](NC(=O)OC)C(C)C)n5)cc4)c4c3CCC43CCCC3)cc2)c[nH]1)C(C)C [Example 21] | 4.88 nM | 0.98 nM
8 | COC(=O)N[C@H](C(=O)N1CCC[C@H]1c1ncc(-c2ccc(-c3ccc(-c4ccc5nc([C@@H]6CCCN6C(=O)[C@@H](NC(=O)OC)c6ccccc6)[nH]c5c4)c4c3C3(CCCC3)CC4)cc2)[nH]1)c1ccccc1 [Example 19] | 0.376 nM | 0.011 nM
9 | COC(=O)NC(C(=O)N1CCCC1c1ncc(-c2ccc(-c3ccc(-c4ccc5[nH]c(C6CCCN6C(=O)C(NC(=O)OC)C(C)C)nc5c4)c4c3CCC43CCCC3)cc2)[nH]1)C(C)C (centres unmarked) [Example 56] | 0.138 nM | 0.036 nM
10 | COC(=O)N[C@H](C(=O)N1CCC[C@H]1c1ncc(-c2ccc(-c3ccc(-c4cnc([C@@H]5CCCN5C(=O)[C@@H](NC(=O)OC)C(C)C)[nH]4)c4c3C3(CCC4)CCN(C)C3)cc2)[nH]1)C(C)C (some centres unmarked) [Example 50] | 0.875 nM | 0.096 nM
11 | COC(=O)N[C@H](C(=O)N1CCC[C@H]1c1ncc(-c2ccc(-c3ccc(-c4cnc([C@@H]5CCCN5C(=O)[C@@H](NC(=O)OC)c5ccccc5)[nH]4)c4c3C3(CC4)CCN(C)CC3)cc2)[nH]1)c1ccccc1 [Example 43] | 7.28 nM | 0.148 nM
12 | COC(=O)N[C@H](C(=O)N1CCC[C@H]1c1nc(-c2ccc(-c3ccc(-c4ccc(-c5cnc([C@@H]6CCCN6C(=O)[C@@H](NC(=O)OC)C(C)C)[nH]5)cc4)c4c3CCC43CCCC3)cc2)c[nH]1)C(C)C [Example 6] | 1.37 nM | 0.208 nM
13 | COC(=O)N[C@H](C(=O)N1CCC[C@H]1c1ncc(-c2ccc(-c3ccc(-c4cnc([C@@H]5CCCN5C(=O)[C@@H](NC(=O)OC)C(C)C)[nH]4)c4c3CCC43CCCC3)cc2)[nH]1)C(C)C [Example 5] | 2.49 nM | 0.086 nM
14 | CC(C)[C@H](NC(=O)OC(C)(C)C)C(=O)N1CCC[C@H]1c1ncc(-c2ccc(C3CCC(c4cnc([C@@H]5CCCN5C(=O)[C@@H](NC(=O)OC(C)(C)C)C(C)C)[nH]4)CC3)c3c2CCC32CCCC2)[nH]1 (some centres unmarked) [Example 10] | 9.86 nM | 3.46 nM
15 | COC(=O)N[C@H](C(=O)N1C[C@@H](C)C[C@H]1c1ncc(-c2ccc(-c3ccc(-c4cnc([C@@H]5C[C@H](C)CN5C(=O)[C@@H](NC(=O)OC)C(C)C)[nH]4)c4c3C3(CCCC3)CC4)cc2)[nH]1)C(C)C [Example 14] | 0.785 nM | 0.011 nM
16 | COC(=O)N[C@H](C(=O)N1CCC[C@H]1c1ncc(C#Cc2ccc(-c3ccc(-c4cnc([C@@H]5CCCN5C(=O)[C@@H](NC(=O)OC)C(C)C)[nH]4)cc3)c3c2CCC32CCCC2)[nH]1)C(C)C [Example 13] | 0.438 nM | 0.032 nM

Row | Compound | EC50 (HCV GT1a replicon cells) | EC50 (HCV GT1b replicon cells)
17 | COC(=O)N[C@H](C(=O)N1CCC[C@H]1c1ncc(-c2ccc(-c3ccc(-c4cnc([C@@H]5CC6(CN5C(=O)[C@@H](NC(=O)OC)C(C)C)OCCO6)[nH]4)c4c3C3(CCCC3)CC4)cc2)[nH]1)C(C)C [Example 31] | 4.68 nM | 0.048 nM
18 | COC(=O)N[C@H](C(=O)N1C[C@@H](C)C[C@H]1c1nc(-c2ccc(-c3ccc(-c4ccc5nc([C@@H]6C[C@H](C)CN6C(=O)[C@@H](NC(=O)OC)C(C)C)[nH]c5c4)c4c3C3(CCCC3)CC4)cc2)c[nH]1)C(C)C [Example 16] | 0.008 nM | 0.005 nM
19 | COC(=O)N[C@H](C(=O)N1CCC[C@H]1c1nc(-c2ccc(-c3ccc(-c4c[nH]c([C@@H]5CCCN5C(=O)[C@@H](NC(=O)OC)C(C)C)n4)c4c3C3(CCCC3)CC4)cc2)c[nH]1)C(C)C [Example 2] | 0.325 nM | 0.009 nM
20 | COC(=O)N[C@H](C(=O)N1C2CCC(C2)[C@H]1c1ncc(-c2ccc(-c3ccc(-c4ccc5nc([C@@H]6C7CCC(C7)N6C(=O)[C@@H](NC(=O)OC)C(C)C)[nH]c5c4)c4c3C3(CCCC3)CC4)cc2)[nH]1)C(C)C (some centres unmarked) [Example 33] | 0.09 nM | 0.039 nM
21 | COC(=O)N[C@H](C(=O)N1CCC[C@H]1c1ncc(-c2ccc(-c3ccc(-c4cnc([C@@H]5CCCN5C(=O)[C@@H](NC(=O)OC)C5CCCCC5)[nH]4)c4c3C3(CCCC3)CC4)cc2)[nH]1)C1CCCCC1 [Example 15] | 0.886 nM | 0.029 nM
22 | COC(=O)N[C@H](C(=O)N1CCC[C@H]1c1ncc(-c2ccc(-c3ccc(-c4cnc([C@@H]5CCCN5C(=O)[C@@H](NC(=O)OC)C(C)C)[nH]4)c4c3C3(CCCO3)CCC4)cc2)[nH]1)C(C)C (some centres unmarked) [Example 51] | 4.57 nM | 0.086 nM
23 | CCC(C)[C@H](NC(=O)OC)C(=O)N1C2CC2C[C@H]1c1ncc(-c2ccc(-c3ccc(-c4ccc(-c5cnc([C@@H]6CC7CC7N6C(=O)[C@@H](NC(=O)OC)C(C)CC)[nH]5)cc4)c4c3CCC43CCCC3)cc2)[nH]1 (some centres unmarked) [Example 24] | 2.69 nM | 0.055 nM
24 | COC(=O)N[C@H](C(=O)N1CC2(CC2)C[C@H]1c1ncc(-c2ccc(-c3ccc(-c4ccc(-c5cnc([C@@H]6CC7(CC7)CN6C(=O)[C@@H](NC(=O)OC)C(C)C)[nH]5)cc4)c4c3CCC43CCCC3)cc2)[nH]1)C(C)C [Example 22] | 3.65 nM | 0.876 nM
25 | COC(=O)N[C@H](C(=O)N1CCC[C@H]1c1ncc(-c2ccc(-c3ccc(-c4cnc([C@@H]5CCCN5C(=O)[C@@H](NC(=O)OC)C(C)C)[nH]4)c4c3C3(CC4)CCC(C)CC3)s2)[nH]1)C(C)C (some centres unmarked) [Example 44] | 13.7 nM | 0.937 nM
26 | COC(=O)N[C@H](C(=O)N1CCC[C@H]1C(=O)Nc1ccc(-c2ccc(-c3ccc(NC(=O)[C@@H]4CCCN4C(=O)[C@@H](NC(=O)OC)C(C)C)cc3)c3c2CCC32CCCC2)cc1)C(C)C [Example 20] | 5.9 nM | 1.03 nM
27 | COC(=O)N[C@H](C(=O)N1CCC[C@H]1c1ncc(-c2ccc(-c3ccc(-c4cnc([C@@H]5CCCN5C(=O)[C@@H](NC(=O)OC)C(C)C)[nH]4)c4c3C3(CCOC3)CC4)cc2)[nH]1)C(C)C (some centres unmarked) [Example 52] | 3.67 nM | 0.033 nM
28 | COC(=O)N[C@H](C(=O)N1CCC[C@H]1c1nc2ccc(-c3ccc(-c4ccc5nc([C@@H]6CCCN6C(=O)[C@@H](NC(=O)OC)C(C)C)[nH]c5c4)c4c3CCC43CCC3)cc2[nH]1)C(C)C [Example 40] | 0.043 nM | 0.017 nM
29 | COC(=O)N[C@H](C(=O)N1CCC[C@H]1c1ncc(-c2ccc(-c3ccc(-c4ccc5nc([C@@H]6CCCN6C(=O)[C@@H](NC(=O)OC)C(C)C)[nH]c5c4)c4c3CCCC43CCCC3)nc2)[nH]1)C(C)C [Example 45] | 0.107 nM | 0.034 nM
30 | COC(=O)N[C@H](C(=O)N1CCC[C@H]1c1ncc(-c2ccc(-c3sc(-c4cnc([C@@H]5CCCN5C(=O)[C@@H](NC(=O)OC)C(C)C)[nH]4)c4c3C3(CCCC3)CC4)cc2)[nH]1)C(C)C [Example 47] | 3.57 nM | 0.687 nM
31 | COC(=O)N[C@H](C(=O)N1CCC[C@H]1c1ncc(-c2ccc(-c3ccc(-c4ccc5nc([C@@H]6CCCN6C(=O)[C@@H](NC(=O)OC)C(C)C)[nH]c5c4)c4c3CCCC43CCC3)s2)[nH]1)C(C)C [Example 41] | 0.876 nM | 0.043 nM
